For one compound, IC50 results are on record in patent US20090197872A1 (priority 2006, published 2009).

Molecules are shown by their SMILES. pIC50: −log10 of the molar value. Structures can show the parent of a compound that is named as a salt.

The target of the experiment is T1, α7-subtype of nicotinic receptors (Rattus norvegicus, UniProt Q05941).
T1 construct: from tissue; host or cells: rat brain
Put plainly: biochemical. The note with it: read-out: Inhibition of 3H-α-Bungarotoxine Binding IC50.

T1 sequence (Q05941 23-502): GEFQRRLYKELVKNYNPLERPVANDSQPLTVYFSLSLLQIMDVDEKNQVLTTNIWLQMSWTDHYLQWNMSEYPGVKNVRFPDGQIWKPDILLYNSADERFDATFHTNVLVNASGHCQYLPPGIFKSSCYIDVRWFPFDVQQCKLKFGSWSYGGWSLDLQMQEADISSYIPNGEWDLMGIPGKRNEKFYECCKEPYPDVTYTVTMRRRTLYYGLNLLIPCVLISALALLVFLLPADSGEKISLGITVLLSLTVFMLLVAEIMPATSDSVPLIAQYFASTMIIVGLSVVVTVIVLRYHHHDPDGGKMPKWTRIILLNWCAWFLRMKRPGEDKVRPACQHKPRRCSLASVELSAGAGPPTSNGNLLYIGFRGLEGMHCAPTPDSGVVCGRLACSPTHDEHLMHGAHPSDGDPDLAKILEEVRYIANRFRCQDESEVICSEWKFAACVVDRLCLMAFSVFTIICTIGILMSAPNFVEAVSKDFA

One may read the pIC50 as the negative decadic logarithm of the IC50, by convention in mol/L. On to `O=C(Nc1cnc(N2CCN3CCC2CC3)nc1)Oc1ccccc1` [Compound A2, [2-(1,4-Diaza-bicyclo[3.2.2]non-4-yl)-pyrimidin-5-yl]-carbamic Acid Phenyl Ester Hydrochloric Acid Salt], for which the pIC50 is over 6.52.
